Measured values: patent US9617267B2, “Compounds and methods for kinase modulation, and indications therefor” (Plexxikon Inc., priority 2009, dated 2017)
Where two headings read alike, the source gives them in different places.

What was measured:
CYP2C9 = CYP2C9 (Homo sapiens (Human), UniProt P11712); experiment: CYP enzyme inhibition, fluorescent substrate (MFC)
Outline: (§1)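 Human CYP activity was followed by the fluorescence of the metabolized product of a known substrate, which falls as metabolism is inhibited. Compounds from 100 mM DMSO stocks were serially diluted 1:1 over 10 points in co-factor mix and preincubated 10 min at 37 °C. IC50 was fitted from signal versus concentration.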

B-Raf [1] = experiment: B-Raf kinase activity biochemical assay (AlphaScreen, biotin-MEK1 phosphorylation); conditions: for Biochemical activity ratio B/V600E: ratio of IC50 B-Raf / B-Raf V600E; for Biochemical activity ratio B/C: ratio of IC50 B-Raf / c-Raf-1
Outline: (§2)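 Biotin-MEK1 phosphorylation measured after 45 min kinase reaction at RT with 100 μM ATP final; compounds tested at 8 points from 0.1 mM DMSO stock.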

B-Raf [2] = target: B-Raf (Homo sapiens (Human), UniProt P15056); experiment: as above; conditions: B-Raf
Outline: as §2

CYP2C19 = CYP2C19 (Homo sapiens (Human), UniProt P33261); experiment: CYP enzyme inhibition, fluorescent substrate (CEC)
Outline: as §1

c-Raf-1 = c-Raf-1 (Homo sapiens, UniProt P04049); experiment: c-Raf-1 kinase activity biochemical assay (AlphaScreen, biotin-MEK1 phosphorylation)
Outline: as §2

CYP3A4(BQ) = CYP3A4(BQ) (Homo sapiens (Human), UniProt P08684); experiment: CYP enzyme inhibition, fluorescent substrate BQ
Outline: as §1

CYP2D6 = CYP2D6 (Homo sapiens (Human), UniProt P10635); experiment: CYP enzyme inhibition, fluorescent substrate (AMMC); format: in vitro ADME; conditions: read-out: Cyp IC50 2D6
Outline: (§3)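 Ten-point 1:1 compound dilutions in NADPH-regenerating cofactor mix, pre-incubated 10 min at 37 °C before enzyme/substrate addition: CYP1A2 0.5 pmol with 5 μM CEC, 15 min, 409 ex/460 em; CYP2D6 1.5 pmol with 1.5 μM AMMC, 30 min, 409 ex/530 em. IC50 from fluorescent product vs concentration.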

B-Raf V600E = B-Raf V600E (Homo sapiens (Human), UniProt P15056, V600E); experiment: B-Raf V600E kinase activity biochemical assay (AlphaScreen, biotin-MEK1 phosphorylation); conditions: for IC50: B-Raf V600E; for Biochemical activity ratio V600E/C: ratio of IC50 B-Raf V600E / c-Raf-1
Outline: as §2

[3] = Relative solubility by turbidity threshold concentration in aqueous buffers (pH 1.5, 4.5, 6.8, 7.4); format: physicochemical; conditions: for turbidity threshold (L, M, H) 1.4: pH 1.4 [sic] (method: SGF pH 1.5); for turbidity threshold (L, M, H) 4.5: pH 4.5 (SIF); for turbidity threshold (L, M, H) 6.8: pH 6.8 (SIF); for turbidity threshold (L, M, H) 7.4: pH 7.4 (HEPES)
Outline: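 Solubility class (high >250 μM, moderate 31.3–250 μM, low <31.3 μM) comes from the concentration where absorbance reaches a 0.01 threshold, averaged across 490/535/650 nm. Samples were compound dilutions from DMSO stock, 1 μL into 99 μL buffer at pH 1.5, 4.5, 6.8 or 7.4.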

CYP1A2 = CYP1A2 (Homo sapiens (Human), UniProt P05177); experiment: CYP enzyme inhibition, fluorescent substrate (CEC)
Outline: as §3

CYP3A4(BFC) = CYP3A4(BFC) (Homo sapiens (Human), UniProt P08684); experiment: CYP enzyme inhibition, fluorescent substrate BFC
Outline: as §1

[4] = read-out: Cyp IC50 2C9, CYP2C9, substrate MFC
[5] = read-out: Cyp IC50 2C19, CYP2C19, substrate CEC
[6] = read-out: Cyp IC50 3A4(BQ), CYP3A4, substrate BQ
[7] = read-out: Cyp IC50 3A4(BFC), CYP3A4, substrate BFC

B-Raf (Homo sapiens (Human), UniProt P15056), sequence (P15056 whole entry): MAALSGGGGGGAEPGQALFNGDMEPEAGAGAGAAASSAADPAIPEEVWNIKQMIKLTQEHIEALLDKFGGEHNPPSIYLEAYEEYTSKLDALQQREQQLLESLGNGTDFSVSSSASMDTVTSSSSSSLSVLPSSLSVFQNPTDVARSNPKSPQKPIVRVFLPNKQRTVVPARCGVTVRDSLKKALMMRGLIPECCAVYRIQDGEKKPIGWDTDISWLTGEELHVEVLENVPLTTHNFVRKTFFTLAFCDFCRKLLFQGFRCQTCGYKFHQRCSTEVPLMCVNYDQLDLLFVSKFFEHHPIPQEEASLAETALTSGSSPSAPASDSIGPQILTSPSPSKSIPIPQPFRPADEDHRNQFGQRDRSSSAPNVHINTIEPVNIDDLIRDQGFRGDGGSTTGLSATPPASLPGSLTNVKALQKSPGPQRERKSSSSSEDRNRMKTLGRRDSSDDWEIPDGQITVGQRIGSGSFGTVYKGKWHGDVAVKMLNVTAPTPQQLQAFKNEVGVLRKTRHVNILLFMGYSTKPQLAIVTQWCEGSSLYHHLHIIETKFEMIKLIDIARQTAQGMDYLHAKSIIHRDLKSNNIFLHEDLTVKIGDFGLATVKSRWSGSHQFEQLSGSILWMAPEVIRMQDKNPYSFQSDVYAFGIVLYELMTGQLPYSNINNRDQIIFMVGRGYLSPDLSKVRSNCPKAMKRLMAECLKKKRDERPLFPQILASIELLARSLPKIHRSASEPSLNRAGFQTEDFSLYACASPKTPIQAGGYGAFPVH
CYP2D6, sequence (P10635 whole entry): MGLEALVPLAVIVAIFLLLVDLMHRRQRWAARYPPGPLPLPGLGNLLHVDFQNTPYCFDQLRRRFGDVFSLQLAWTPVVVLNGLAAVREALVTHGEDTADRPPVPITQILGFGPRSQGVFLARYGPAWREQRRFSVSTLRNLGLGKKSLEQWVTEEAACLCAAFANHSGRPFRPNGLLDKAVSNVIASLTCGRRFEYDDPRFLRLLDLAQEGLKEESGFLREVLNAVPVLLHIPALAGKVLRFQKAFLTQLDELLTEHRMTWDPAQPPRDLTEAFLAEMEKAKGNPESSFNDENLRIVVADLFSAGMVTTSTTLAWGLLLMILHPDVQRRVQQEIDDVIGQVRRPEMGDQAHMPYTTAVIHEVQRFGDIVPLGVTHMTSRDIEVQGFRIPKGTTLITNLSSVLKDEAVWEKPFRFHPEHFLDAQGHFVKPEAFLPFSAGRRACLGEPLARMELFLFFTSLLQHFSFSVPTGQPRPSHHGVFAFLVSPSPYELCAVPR
CYP3A4(BFC), sequence (P08684 whole entry): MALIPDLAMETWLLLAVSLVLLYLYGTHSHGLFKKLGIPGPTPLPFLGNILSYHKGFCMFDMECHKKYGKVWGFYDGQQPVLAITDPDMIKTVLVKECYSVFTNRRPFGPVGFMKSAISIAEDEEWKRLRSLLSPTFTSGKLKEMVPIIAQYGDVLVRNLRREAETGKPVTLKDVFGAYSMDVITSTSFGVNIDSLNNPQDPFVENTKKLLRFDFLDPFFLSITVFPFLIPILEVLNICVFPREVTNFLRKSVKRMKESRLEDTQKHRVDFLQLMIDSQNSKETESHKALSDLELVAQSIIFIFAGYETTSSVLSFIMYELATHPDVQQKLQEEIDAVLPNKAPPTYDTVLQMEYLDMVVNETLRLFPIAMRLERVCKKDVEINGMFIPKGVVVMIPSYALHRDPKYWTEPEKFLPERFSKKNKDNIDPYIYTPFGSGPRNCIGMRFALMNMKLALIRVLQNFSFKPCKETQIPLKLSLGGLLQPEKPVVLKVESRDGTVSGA
CYP3A4(BQ), sequence (P08684 whole entry): as above
CYP1A2, sequence (P05177 whole entry): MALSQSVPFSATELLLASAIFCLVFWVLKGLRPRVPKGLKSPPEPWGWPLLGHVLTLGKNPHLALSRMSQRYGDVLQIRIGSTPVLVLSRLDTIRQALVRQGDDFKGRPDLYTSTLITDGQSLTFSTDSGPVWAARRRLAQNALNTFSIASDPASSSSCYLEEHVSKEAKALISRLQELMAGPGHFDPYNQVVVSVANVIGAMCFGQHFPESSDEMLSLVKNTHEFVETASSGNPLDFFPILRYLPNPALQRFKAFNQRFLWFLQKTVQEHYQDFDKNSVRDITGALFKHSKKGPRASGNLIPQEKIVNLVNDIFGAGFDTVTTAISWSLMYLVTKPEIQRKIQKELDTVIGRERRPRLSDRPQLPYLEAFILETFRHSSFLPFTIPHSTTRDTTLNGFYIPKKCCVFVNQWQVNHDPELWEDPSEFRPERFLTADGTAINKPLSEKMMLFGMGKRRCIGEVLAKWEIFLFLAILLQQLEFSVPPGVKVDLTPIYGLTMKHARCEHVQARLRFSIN
c-Raf-1, sequence (P04049 whole entry, looked up): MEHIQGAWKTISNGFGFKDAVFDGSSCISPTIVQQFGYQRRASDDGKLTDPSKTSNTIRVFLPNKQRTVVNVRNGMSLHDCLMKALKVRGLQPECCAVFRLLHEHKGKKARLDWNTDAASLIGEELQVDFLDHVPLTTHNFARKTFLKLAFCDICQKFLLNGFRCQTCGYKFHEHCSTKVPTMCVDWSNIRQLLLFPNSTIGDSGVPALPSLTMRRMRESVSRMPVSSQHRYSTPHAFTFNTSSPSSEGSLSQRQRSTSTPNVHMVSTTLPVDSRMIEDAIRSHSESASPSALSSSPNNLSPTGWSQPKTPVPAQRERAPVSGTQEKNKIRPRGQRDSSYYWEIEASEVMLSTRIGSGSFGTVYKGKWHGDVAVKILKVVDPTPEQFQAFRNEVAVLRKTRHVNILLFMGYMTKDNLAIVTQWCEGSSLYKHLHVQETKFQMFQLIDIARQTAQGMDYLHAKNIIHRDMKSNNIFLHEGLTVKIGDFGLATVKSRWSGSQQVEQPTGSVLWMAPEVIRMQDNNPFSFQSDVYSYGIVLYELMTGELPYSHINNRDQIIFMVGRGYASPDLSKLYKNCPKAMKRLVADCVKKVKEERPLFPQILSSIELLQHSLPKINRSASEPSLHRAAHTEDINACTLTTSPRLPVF
CYP2C19, sequence (P33261 whole entry): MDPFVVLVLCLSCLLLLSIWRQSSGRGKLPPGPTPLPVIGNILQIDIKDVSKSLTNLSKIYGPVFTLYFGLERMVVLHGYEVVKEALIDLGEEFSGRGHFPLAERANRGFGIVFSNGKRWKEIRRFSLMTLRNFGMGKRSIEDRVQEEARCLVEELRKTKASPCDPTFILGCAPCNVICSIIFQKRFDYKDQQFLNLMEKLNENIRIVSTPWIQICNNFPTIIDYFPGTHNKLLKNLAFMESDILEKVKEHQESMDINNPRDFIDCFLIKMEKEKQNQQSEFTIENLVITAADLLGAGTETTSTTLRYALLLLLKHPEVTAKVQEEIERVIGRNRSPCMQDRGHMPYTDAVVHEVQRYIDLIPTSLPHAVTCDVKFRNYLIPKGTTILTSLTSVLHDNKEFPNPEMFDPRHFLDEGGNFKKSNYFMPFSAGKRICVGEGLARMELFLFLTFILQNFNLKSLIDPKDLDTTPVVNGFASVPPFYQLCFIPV
CYP2C9, sequence (P11712 whole entry): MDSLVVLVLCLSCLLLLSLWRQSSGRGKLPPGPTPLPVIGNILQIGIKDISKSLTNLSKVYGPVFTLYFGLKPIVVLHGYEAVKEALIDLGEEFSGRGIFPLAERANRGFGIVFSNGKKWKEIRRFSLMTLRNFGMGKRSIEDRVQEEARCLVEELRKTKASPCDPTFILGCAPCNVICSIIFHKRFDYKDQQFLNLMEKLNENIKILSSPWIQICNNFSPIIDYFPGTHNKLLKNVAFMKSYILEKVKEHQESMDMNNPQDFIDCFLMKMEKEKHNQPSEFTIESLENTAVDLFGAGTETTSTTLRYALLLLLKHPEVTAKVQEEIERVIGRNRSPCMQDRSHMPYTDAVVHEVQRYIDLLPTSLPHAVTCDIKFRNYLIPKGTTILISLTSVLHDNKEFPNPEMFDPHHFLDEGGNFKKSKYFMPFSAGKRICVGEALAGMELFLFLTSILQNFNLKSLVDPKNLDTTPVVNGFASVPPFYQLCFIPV
B-Raf V600E, sequence (P15056 whole entry V600E): as the sequence (P15056 whole entry) above, with V600E counted along it

Structure (SMILES)	IC50 (CYP2C9; [4]) [µM]	Biochemical activity ratio B/V600E (B-Raf [1])	Biochemical activity ratio B/C (B-Raf [1])	IC50 (B-Raf [2]) [µM]	IC50 (CYP2C19; [5]) [µM]	IC50 (c-Raf-1) [µM]	IC50 (CYP3A4(BQ); [6]) [µM]	IC50 (CYP2D6) [µM]	IC50 (B-Raf V600E) [µM]	Biochemical activity ratio V600E/C (B-Raf V600E)	turbidity threshold (L, M, H) 1.4 [3]	turbidity threshold (L, M, H) 4.5 [3]	turbidity threshold (L, M, H) 6.8 [3]	turbidity threshold (L, M, H) 7.4 [3]	IC50 (CYP1A2; human, 15 min) [µM]	IC50 (CYP3A4(BFC); [7]) [µM]	IC50 (CYP2C9) [µM]	IC50 (CYP2C19) [µM]	IC50 (CYP3A4(BFC)) [µM]	other results
CCCS(=O)(=O)Nc1ccc(F)c(C(=O)c2c[nH]c3ncnc(NC4COC4)c23)c1F [P-1060, Propane-1-sulfonic acid {2,4-difluoro-3-[4-(oxetan-3-ylamino)-7H-pyrrolo[2,3-d]pyrimidine-5-carbonyl]-phenyl}-amide]	> 10	0.1-10	>10	< 0.1	> 10	< 0.1	> 10	> 10	< 0.1	0.1-10	H (high solubility if the threshold concentration is >250 μm)	M (moderate solubility if the threshold concentration is 31.3 μM to 250 μM)	H (high solubility if the threshold concentration is >250 μm)	H (high solubility if the threshold concentration is >250 μm)	> 10	> 10				
O=C(c1c(F)ccc(NS(=O)(=O)c2ccc(C(F)(F)F)cc2)c1F)c1c[nH]c2ncnc(O)c12 [P-1012, N-[2,4-Difluoro-3-(4-hydroxy-7H-pyrrolo[2,3-d]pyrimidine-5-carbonyl)-phenyl]-4-trifluoromethyl-benzenesulfonamide]	> 10	0.1-10	0.1-10	> 0.1	> 10	< 0.1	> 10	> 10	> 0.1	>10	M (moderate solubility if the threshold concentration is 31.3 μM to 250 μM)	M (moderate solubility if the threshold concentration is 31.3 μM to 250 μM)	H (high solubility if the threshold concentration is >250 μm)	H (high solubility if the threshold concentration is >250 μm)		> 10				IC50 (CYP1A2; read-out: Cyp IC50 1A2, CYP1A2, substrate CEC): > 10 µM
CCn1cc(Nc2ncnc3[nH]cc(C(=O)c4c(F)ccc(NS(=O)(=O)c5ccc(C(F)(F)F)cc5)c4F)c23)cn1 [P-1063, N-{3-[4-(1-Ethyl-1H-pyrazol-4-ylamino)-7H-pyrrolo[2,3-d]pyrimidine-5-carbonyl]-2,4-difluoro-phenyl}-4-trifluoromethyl-benzenesulfonamide]		0.1-10	>10	< 0.1		< 0.1	< 5	> 10	> 0.1	>10	L (low solubility if the threshold concentration is <31.3 μM)	L (low solubility if the threshold concentration is <31.3 μM)	L (low solubility if the threshold concentration is <31.3 μM)	L (low solubility if the threshold concentration is <31.3 μM)	> 10		5 to 10	5 to 10	5 to 10	
CCCS(=O)(=O)Nc1ccc(F)c(C(=O)c2c[nH]c3ncc(Cl)c(C#N)c23)c1F [P-2007, Propane-1-sulfonic acid [3-(5-chloro-4-cyano-1H-pyrrolo[2,3-b]pyridine-3-carbonyl)-2,4-difluoro-phenyl]-amide]		0.1-10	0.1-10	< 0.1		< 0.1		> 10	< 0.1	0.1-10	M (moderate solubility if the threshold concentration is 31.3 μM to 250 μM)	M (moderate solubility if the threshold concentration is 31.3 μM to 250 μM)	M (moderate solubility if the threshold concentration is 31.3 μM to 250 μM)	M (moderate solubility if the threshold concentration is 31.3 μM to 250 μM)			< 5	> 10	> 10	IC50 (CYP3A4(BQ)): > 10 µM; IC50 (CYP1A2): > 10 µM
